According to ChEMBL document CHEMBL1201862, “PubChem BioAssay data set” (2004):
Each block holds one molecule with its values, some of them ahead of it. Activity calls are given as the source filed them.

Experiments:
[1] = biological target: Peroxisome proliferator-activated receptor gamma/Nuclear receptor corepressor 2 (Homo sapiens, UniProt P37231+Q9Y618); test: Counterscreen for NR2E3 inverse agonists: TR-FRET-based biochemical high throughput dose response assay to identify inverse agonists of the interaction between peroxisome proliferator-activated receptor gamma (PPARg) and nuclear receptor co-repressor 2 (NCOR2).; type: functional
[2] = biological target: T1, Serine/threonine-protein phosphatase (Homo sapiens, UniProt Q9BPW0); test: Counterscreen for inhibitors of PP1: fluorescence-based biochemical high throughput dose response assay to identify inhibitors of Protein Phosphatase 5 (PP5). [Related pubchem assays: 2034 (Summary (PP5 inhibitors)), 1987 (PP5 inhibitors in singlate), 2235 (PP1 inhibitors in singlate)]
T1 sequence (Q9BPW0 whole entry): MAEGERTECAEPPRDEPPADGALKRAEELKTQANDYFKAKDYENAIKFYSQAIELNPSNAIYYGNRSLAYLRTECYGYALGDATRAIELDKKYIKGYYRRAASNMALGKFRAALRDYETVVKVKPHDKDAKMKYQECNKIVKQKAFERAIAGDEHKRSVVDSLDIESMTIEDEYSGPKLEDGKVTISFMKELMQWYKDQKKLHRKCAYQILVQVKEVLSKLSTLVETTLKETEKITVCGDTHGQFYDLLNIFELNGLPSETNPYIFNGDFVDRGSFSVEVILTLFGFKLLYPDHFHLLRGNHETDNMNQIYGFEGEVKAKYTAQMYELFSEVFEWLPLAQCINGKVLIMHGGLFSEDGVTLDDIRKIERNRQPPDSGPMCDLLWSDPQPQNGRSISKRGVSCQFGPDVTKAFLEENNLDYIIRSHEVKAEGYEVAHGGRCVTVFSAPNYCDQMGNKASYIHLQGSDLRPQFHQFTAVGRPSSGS

[3] = biological target: Photoreceptor-specific nuclear receptor (Homo sapiens, UniProt Q9Y5X4); test: NR2E3 inverse agonists, dose response, biochemical, TR-FRET (AID 463256); type: functional
Photoreceptor-specific nuclear receptor, sequence (Q9Y5X4 whole entry): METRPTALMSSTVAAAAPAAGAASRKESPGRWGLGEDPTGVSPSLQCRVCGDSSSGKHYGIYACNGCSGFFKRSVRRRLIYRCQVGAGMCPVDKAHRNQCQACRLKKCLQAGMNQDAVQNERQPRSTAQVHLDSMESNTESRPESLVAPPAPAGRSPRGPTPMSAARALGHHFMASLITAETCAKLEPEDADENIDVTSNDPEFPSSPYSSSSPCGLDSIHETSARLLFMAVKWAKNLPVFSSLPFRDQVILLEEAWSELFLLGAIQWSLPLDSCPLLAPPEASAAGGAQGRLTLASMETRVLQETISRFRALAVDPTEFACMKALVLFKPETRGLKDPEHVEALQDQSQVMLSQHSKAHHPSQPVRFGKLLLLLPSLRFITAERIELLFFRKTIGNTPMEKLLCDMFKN

[4] = biological target: Serine/threonine-protein phosphatase PP1-alpha catalytic subunit (Homo sapiens, UniProt P62136); test: PP1 phosphatase inhibitors, dose response, biochemical, fluorescence (AID 2403);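 also: phosphatase turnover of OMFP into fluorescent 3-O-methylfluorescein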
Serine/threonine-protein phosphatase PP1-alpha catalytic subunit, sequence (P62136 whole entry): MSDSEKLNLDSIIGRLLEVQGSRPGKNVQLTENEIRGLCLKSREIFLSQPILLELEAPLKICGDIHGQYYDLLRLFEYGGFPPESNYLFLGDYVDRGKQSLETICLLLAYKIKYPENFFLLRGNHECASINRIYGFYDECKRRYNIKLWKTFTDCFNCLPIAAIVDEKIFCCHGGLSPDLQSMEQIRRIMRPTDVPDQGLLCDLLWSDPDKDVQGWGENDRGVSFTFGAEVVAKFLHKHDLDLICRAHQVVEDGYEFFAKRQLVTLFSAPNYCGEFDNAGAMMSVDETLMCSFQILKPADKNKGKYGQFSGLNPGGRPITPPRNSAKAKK

Hexokinase HKDC1 = Hexokinase HKDC1 (Homo sapiens, UniProt Q2TB90); test: HKDC1 hexokinase inhibitors, dose response, biochemical, W721R variant (AID 504729); type: functional
Hexokinase HKDC1, sequence (Q2TB90 whole entry): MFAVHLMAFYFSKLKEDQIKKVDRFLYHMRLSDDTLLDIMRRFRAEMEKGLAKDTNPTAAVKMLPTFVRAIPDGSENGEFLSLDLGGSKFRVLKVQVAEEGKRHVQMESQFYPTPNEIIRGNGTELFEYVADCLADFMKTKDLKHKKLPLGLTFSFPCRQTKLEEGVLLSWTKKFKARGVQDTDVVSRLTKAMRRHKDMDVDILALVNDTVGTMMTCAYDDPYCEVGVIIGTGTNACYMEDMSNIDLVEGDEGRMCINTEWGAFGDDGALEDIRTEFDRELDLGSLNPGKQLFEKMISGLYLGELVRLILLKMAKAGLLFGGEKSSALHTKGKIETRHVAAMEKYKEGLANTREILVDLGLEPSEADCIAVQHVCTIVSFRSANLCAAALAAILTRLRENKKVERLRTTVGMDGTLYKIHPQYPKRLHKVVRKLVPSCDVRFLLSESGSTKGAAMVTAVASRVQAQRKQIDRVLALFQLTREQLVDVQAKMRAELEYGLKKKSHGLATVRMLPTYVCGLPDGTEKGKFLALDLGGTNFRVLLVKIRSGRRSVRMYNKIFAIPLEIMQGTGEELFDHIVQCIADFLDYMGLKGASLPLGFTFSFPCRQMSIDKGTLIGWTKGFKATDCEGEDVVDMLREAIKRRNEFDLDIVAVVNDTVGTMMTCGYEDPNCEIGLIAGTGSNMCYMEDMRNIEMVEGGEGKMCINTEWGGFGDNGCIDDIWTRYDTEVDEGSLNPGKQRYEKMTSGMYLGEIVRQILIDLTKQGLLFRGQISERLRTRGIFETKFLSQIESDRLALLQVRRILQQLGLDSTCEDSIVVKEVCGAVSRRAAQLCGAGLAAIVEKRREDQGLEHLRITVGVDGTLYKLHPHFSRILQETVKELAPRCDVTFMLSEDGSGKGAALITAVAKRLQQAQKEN

[5] = biological target: Eukaryotic translation initiation factor 4E (Mus musculus, UniProt P63073); test: eIF4E–eIF4G protein interaction inhibitors, dose response, biochemical, TR-FRET (AID 855); type: functional;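 also: potency for disrupting eIF4E binding to eIF4GI seen as loss of FRET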
Eukaryotic translation initiation factor 4E, sequence (P63073 whole entry): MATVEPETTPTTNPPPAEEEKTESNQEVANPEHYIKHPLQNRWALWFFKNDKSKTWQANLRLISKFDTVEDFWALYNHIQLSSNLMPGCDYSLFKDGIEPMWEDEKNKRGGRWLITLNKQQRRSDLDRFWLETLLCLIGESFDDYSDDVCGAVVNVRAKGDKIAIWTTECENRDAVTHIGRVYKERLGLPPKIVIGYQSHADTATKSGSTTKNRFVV

[6] = biological target: T2, Calpain-2 catalytic subunit (Sus scrofa, UniProt P43367); test: pig calpain II inhibitor potency, dose response, biochemical, fluorogenic peptide substrate (AID 1420); type: functional
T2 sequence (P43367 whole entry): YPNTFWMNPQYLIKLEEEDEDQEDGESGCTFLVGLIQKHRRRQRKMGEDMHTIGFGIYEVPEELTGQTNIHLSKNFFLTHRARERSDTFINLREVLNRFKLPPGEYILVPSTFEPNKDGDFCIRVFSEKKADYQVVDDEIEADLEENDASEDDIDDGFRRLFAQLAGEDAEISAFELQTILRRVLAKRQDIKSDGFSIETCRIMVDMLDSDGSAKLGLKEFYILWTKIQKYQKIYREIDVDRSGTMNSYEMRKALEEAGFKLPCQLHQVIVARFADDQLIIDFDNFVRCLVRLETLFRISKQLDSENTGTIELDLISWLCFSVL

Bcl-2-like protein 10 = Bcl-2-like protein 10 (Homo sapiens, UniProt Q9HD36); test: displacers of TR3 peptide from Bcl-B, primary screen, selectivity assay for Bfl-1 inhibitor project, biochemical, fluorescence polarization, FITC-TR3 peptide (AID 748);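 also: fluorescence polarization from a fluorescein-labelled TR3 peptide binding purified Bcl-B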
SUMO E1/E2 = SUMO E1/E2 (Homo sapiens, UniProt P63279+Q9UBE0+Q9UBT2); test: SAR analysis of SUMOylation using HTRF in an in-Vitro dose response assay. [Related pubchem assays (depositor defined):AID2006, AID2011, AID2018, AID2069, AID2658]; type: functional
[7] = biological target: T3, Probable nicotinate-nucleotide adenylyltransferase (Staphylococcus aureus (strain N315), UniProt P65502); type: functional, Staphylococcus aureus subsp. aureus N315; details: read-out: IC50_Mean;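 as to IC50 Mean: confirmatory dose-response retesting of NadD inhibitor hits first found in an ultra-high-throughput screen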
[8] = biological target: T3, Probable nicotinate-nucleotide adenylyltransferase; type: functional, Staphylococcus aureus subsp. aureus N315
[9] = biological target: T4, Voltage-gated N-type calcium channel alpha-1B subunit/Amyloid beta A4 precursor protein-binding family A member 1 (Homo sapiens, UniProt Q00975+Q02410); type: protein assay
T4 sequence (Q00975 whole entry): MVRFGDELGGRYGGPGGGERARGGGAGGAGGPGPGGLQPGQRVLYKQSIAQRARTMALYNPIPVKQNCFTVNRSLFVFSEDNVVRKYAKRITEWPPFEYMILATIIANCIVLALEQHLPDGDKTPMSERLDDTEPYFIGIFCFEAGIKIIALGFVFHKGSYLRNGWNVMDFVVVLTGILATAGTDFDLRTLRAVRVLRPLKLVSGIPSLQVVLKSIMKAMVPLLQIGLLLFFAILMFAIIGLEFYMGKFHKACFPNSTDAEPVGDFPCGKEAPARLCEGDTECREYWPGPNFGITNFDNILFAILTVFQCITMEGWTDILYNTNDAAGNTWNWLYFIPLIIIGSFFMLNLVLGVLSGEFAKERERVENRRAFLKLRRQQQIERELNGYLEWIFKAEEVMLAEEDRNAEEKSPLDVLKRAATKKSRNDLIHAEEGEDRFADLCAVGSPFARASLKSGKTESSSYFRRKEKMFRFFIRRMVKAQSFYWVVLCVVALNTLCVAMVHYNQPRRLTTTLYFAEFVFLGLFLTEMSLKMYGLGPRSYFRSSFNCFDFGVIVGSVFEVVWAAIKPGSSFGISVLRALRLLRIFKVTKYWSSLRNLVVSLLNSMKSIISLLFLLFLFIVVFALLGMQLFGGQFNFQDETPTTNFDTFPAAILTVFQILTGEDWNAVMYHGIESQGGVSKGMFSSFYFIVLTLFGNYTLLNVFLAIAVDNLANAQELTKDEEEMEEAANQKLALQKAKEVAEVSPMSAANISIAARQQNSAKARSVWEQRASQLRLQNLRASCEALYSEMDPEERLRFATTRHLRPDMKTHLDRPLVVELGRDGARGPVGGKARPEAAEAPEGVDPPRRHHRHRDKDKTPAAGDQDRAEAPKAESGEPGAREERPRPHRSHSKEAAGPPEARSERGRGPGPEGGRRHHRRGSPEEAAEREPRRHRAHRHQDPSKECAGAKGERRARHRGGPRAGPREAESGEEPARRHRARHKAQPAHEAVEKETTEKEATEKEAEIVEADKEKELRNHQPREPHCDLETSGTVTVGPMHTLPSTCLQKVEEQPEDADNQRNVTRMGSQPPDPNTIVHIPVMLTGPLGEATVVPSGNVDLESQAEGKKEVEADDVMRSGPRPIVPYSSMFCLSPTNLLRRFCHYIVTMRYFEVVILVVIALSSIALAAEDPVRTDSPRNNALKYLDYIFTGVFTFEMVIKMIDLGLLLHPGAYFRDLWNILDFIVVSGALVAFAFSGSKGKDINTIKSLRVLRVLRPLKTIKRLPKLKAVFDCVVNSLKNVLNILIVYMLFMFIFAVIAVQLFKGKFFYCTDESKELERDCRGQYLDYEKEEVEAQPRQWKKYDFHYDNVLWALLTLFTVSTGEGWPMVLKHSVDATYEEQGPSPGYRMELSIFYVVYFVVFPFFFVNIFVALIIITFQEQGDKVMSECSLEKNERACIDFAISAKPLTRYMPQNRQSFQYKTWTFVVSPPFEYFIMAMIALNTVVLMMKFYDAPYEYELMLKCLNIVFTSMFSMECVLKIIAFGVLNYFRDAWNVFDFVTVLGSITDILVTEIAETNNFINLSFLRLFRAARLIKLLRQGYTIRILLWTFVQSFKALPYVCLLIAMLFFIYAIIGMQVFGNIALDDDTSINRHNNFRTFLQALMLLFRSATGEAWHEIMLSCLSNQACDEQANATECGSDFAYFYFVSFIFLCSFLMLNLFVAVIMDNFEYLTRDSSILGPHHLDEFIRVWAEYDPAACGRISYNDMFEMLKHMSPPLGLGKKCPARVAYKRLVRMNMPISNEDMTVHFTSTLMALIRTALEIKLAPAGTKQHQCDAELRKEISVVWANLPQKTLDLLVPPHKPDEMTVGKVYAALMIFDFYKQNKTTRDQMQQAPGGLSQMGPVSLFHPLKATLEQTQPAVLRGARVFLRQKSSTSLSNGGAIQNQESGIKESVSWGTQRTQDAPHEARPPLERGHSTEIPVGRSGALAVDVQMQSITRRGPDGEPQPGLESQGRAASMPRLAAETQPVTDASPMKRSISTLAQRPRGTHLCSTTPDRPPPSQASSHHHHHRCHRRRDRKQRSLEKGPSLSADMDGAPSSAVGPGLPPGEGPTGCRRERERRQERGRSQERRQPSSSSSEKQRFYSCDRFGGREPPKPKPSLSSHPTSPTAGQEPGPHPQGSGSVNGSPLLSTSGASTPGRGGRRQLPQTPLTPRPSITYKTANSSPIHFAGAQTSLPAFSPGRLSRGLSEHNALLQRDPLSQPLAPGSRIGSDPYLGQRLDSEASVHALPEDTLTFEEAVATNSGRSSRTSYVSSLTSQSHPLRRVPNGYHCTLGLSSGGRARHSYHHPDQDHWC
T4 sequence (Q02410 whole entry): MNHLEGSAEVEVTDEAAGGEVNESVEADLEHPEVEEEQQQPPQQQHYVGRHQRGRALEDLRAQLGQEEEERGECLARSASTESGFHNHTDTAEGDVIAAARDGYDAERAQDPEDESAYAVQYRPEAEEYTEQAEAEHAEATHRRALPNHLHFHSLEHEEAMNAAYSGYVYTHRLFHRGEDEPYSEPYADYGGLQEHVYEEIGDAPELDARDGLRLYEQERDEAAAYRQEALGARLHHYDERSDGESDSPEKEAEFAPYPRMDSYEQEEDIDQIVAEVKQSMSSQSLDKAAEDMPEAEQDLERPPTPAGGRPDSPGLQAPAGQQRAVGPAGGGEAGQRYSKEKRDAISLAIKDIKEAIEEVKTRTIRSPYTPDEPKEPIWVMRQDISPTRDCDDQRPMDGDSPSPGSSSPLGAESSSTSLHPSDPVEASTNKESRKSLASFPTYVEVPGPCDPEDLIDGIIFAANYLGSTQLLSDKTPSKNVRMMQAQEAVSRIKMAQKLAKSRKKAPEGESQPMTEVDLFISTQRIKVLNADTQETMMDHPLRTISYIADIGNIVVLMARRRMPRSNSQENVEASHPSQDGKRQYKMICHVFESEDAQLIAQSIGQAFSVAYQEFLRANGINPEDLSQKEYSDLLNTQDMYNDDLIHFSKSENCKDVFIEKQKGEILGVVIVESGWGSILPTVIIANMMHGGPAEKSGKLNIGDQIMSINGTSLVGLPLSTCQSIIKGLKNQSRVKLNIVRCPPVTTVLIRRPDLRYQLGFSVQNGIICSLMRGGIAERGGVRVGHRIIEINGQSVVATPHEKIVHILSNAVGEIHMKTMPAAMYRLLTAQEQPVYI

[10] = biological target: T4, Voltage-gated N-type calcium channel alpha-1B subunit/Amyloid beta A4 precursor protein-binding family A member 1; test: disruptors of Mint-PDZ/N-type channel peptide interaction – biochemical, HTRF, set 2, SAR follow-up (AID 434980); type: functional
[11] = biological target: Induced myeloid leukemia cell differentiation protein Mcl-1 (Homo sapiens, UniProt Q07820); type: functional
Genome polyprotein = Genome polyprotein (Hepatitis C virus, UniProt Q2Q167); test: HCV core protein dimerization inhibitors, dose response, biochemical, TR-FRET (AID 2159); parameters: species or system Hepacivirus hominis;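 also: blocks dimerization of HCV core protein measured by TR-FRET between tagged core106 pairs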
[12] = biological target: T4, Voltage-gated N-type calcium channel alpha-1B subunit/Amyloid beta A4 precursor protein-binding family A member 1; type: protein assay; remark: listed apart in the source
[13] = biological target: T4, Voltage-gated N-type calcium channel alpha-1B subunit/Amyloid beta A4 precursor protein-binding family A member 1; test: disruptors of Mint-PDZ/N-type channel peptide interaction – biochemical, HTRF, SAR follow-up (AID 2489); type: functional
[14] = biological target: Dual specificity protein phosphatase 3 (Homo sapiens, UniProt P51452); test: VHR1 inhibitor Ki determination, SAR follow-up, biochemical, colorimetric (AID 2004)
Caspase-3 = biological target: T5, Caspase-3 (Homo sapiens, UniProt P42574); test: procaspase-3 activation potency of dual hits, dose response, counter-screen for dual procaspase-3/7 activator project, biochemical, absorbance, PC-3 D3A mutant (AID 504328)
T5 sequence (P42574 whole entry): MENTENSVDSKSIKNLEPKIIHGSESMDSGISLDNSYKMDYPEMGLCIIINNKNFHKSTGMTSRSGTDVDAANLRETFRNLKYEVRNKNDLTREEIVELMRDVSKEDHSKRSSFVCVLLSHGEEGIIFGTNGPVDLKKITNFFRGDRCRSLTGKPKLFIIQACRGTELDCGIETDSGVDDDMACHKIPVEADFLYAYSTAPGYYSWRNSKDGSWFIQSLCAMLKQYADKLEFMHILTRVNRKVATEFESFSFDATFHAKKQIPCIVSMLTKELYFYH

Caspase-7 = Caspase-7 (Homo sapiens, UniProt P55210); test: procaspase-7 activators, dose response, dual procaspase-3/-7 activator project, biochemical, absorbance, human (AID 504330)

IC50 (SUMO E1/E2): 19.4 µM (active) | IC50 [7]: 28.1 µM (active) | IC50 [8]: 8.76 µM (active) | IC50 [9]: 2.59 µM (active) | IC50 [10]: 17.7 µM (active) | IC50 [11]: 2.29 µM (active) | IC50 (Genome polyprotein): > 49.8 µM (not active) | IC50 [12]: 3.76 µM (active) | IC50 [13]: 15 µM (active)
SMILES: COc1ccc(NC(=O)c2cc(-c3ccco3)nc3ccccc23)cc1S(=O)(=O)N1CCOCC1

EC50 (Caspase-3): > 85.3 µM (inactive) | EC50 (Caspase-7): > 85.3 µM (inactive)
SMILES: COc1ccc(-c2cc(C(=O)OC3CCOC3=O)c3ccccc3n2)cc1 (stereo not given)

Second part, the molecule before the results:

SMILES: N#Cc1ccc(CSc2nnc(NC(=O)c3ccc4ncsc4c3)s2)cc1
IC50 [1]: 3.79 µM (active) | IC50 [2]: > 67 µM (not active) | IC50 [3]: 3.91 µM (active) | IC50 [4]: 7.42 µM (active) | IC50 (Hexokinase HKDC1): 10.4 µM (active) | IC50 [5]: 13.1 µM (active)

SMILES: CCN(CC)CCc1c(C)[nH]c(C(=O)OCc2ccccc2)c1C
IC50 [6]: 14.4 µM (not active) | IC50 (Bcl-2-like protein 10): 41.8 µM (active)

SMILES: O=Cc1ccc(Oc2ncnc3ccccc23)cc1
Ki [14]: 43.7 µM (inactive)
